Measurements from the NIST ThermoML archive (doi:10.1016/j.jct.2004.10.005).

Experiment: molar heat capacity at saturation pressure
Settings: Vacuum adiabatic calorimetry

BrC12CC3CC(CC(C3)C1)C2 [1-bromotricyclo[3.3.1.1(3,7)]decane]
Settings	molar heat capacity [J/K/mol]
5.98 K, Crystal 4	1.102
6.34 K, Crystal 4	1.301
6.73 K, Crystal 4	1.56
7.05 K, Crystal 4	1.776
7.4 K, Crystal 4	2.048
7.78 K, Crystal 4	2.391
8.34 K, Crystal 4	2.94
8.96 K, Crystal 4	3.558
9.37 K, Crystal 4	4.013
9.8 K, Crystal 4	4.489
10.27 K, Crystal 4	5.11
10.71 K, Crystal 4	5.643
11.11 K, Crystal 4	6.154
11.51 K, Crystal 4	6.677
11.92 K, Crystal 4	7.254
12.35 K, Crystal 4	7.849
12.82 K, Crystal 4	8.366
13.25 K, Crystal 4	9.058
14.09 K, Crystal 4	10.21
14.56 K, Crystal 4	10.84
15 K, Crystal 4	11.48
15.42 K, Crystal 4	12.01
15.87 K, Crystal 4	12.79
16.34 K, Crystal 4	13.48
16.79 K, Crystal 4	14.11
17.32 K, Crystal 4	14.74
17.91 K, Crystal 4	15.58
18.48 K, Crystal 4	16.3
19.01 K, Crystal 4	17.14
19.61 K, Crystal 4	17.85
20.29 K, Crystal 4	18.72
20.93 K, Crystal 4	19.58
21.63 K, Crystal 4	20.43
22.39 K, Crystal 4	21.39
23.1 K, Crystal 4	22.23
23.9 K, Crystal 4	23.12
24.76 K, Crystal 4	24.04
25.69 K, Crystal 4	25.07
26.66 K, Crystal 4	26.14
27.58 K, Crystal 4	27.16
28.56 K, Crystal 4	28.01
29.52 K, Crystal 4	28.99
29.57 K, Crystal 4	29.29
30.13 K, Crystal 4	29.69
30.42 K, Crystal 4	30.4
30.62 K, Crystal 4	30.95
30.71 K, Crystal 4	31.25
31.02 K, Crystal 4	33.37
31.27 K, Crystal 3	31.25
31.56 K, Crystal 3	31.24
31.81 K, Crystal 3	31.34
32.25 K, Crystal 3	31.61
33.06 K, Crystal 3	32.35
33.28 K, Crystal 3	32.47
34.66 K, Crystal 3	33.75
36.35 K, Crystal 3	35.07
38.12 K, Crystal 3	36.42
39.98 K, Crystal 3	37.78
41.9 K, Crystal 3	39.06
43.96 K, Crystal 3	40.39
46.12 K, Crystal 3	41.85
48.32 K, Crystal 3	43.17
50.74 K, Crystal 3	44.52
53.31 K, Crystal 3	45.98
55.82 K, Crystal 3	47.36
58.21 K, Crystal 3	48.67
60.62 K, Crystal 3	50.13
63.03 K, Crystal 3	51.45
65.43 K, Crystal 3	52.6
67.86 K, Crystal 3	54.08
70.3 K, Crystal 3	55.24
72.8 K, Crystal 3	56.68
75.3 K, Crystal 3	57.96
77.74 K, Crystal 3	59.21
80.19 K, Crystal 3	60.74
82.69 K, Crystal 3	61.79
85.17 K, Crystal 3	63.27
87.66 K, Crystal 3	64.58
90.17 K, Crystal 3	65.86
92.68 K, Crystal 3	67.39
95.2 K, Crystal 3	68.53
97.74 K, Crystal 3	70.12
100.3 K, Crystal 3	71.52
100.96 K, Crystal 3	71.76
102.83 K, Crystal 3	72.73
104.15 K, Crystal 3	73.63
105.3 K, Crystal 3	74.09
107.32 K, Crystal 3	75.22
110.3 K, Crystal 3	76.73
113.21 K, Crystal 3	78.44
116.14 K, Crystal 3	79.82
119.1 K, Crystal 3	81.75
122.01 K, Crystal 3	83.28
124.86 K, Crystal 3	84.61
